Assay: Binding affinity towards Acetylcholinesterase

## CC(C)[C@H](NC(=O)[C@@H]1CCCN1C(=O)[C@@H](NC(=O)c1ccc(C(=O)NS(=O)(=O)c2ccc(Cl)cc2)cc1)C(C)C)C(=O)c1nc2cc(C(N)=O)ccc2o1 [2-{(S)-2-[((S)-1-{(S)-2-[4-(4-Chloro-benzenesulfonylaminocarbonyl)-benzoylamino]-3-methyl-butyryl}-pyrrolidine-2-carbonyl)-amino]-3-methyl-butyryl}-benzooxazole-5-carboxylic acid amide]
  Ki: > 2 mM

Reference: BindingDB's records for doi:10.1021/jm00020a011 (Zeneca Pharmaceuticals, 1995)
